From the CheMixHub drug solubility set

Test: xn = mol fraction of the nth substance listed, in the solute-free solvent

Cl.NC1CCSC1=O (stereo unspecified) + CO + CC#N
solubility (g/100 g solution)
Conditions | x2 = 0.1 | x2 = 0.2 | x2 = 0.3 | x2 = 0.4 | x2 = 0.5 | x2 = 0.6 | x2 = 0.7 | x2 = 0.8 | x2 = 0.9
283.15 K | 0.153 | 0.482 | 1.04 | 1.98 | 3.18 | 4.35 | 4.99 | 5.63 | 6.22
293.15 K | 0.155 | 0.525 | 1.13 | 2.12 | 3.55 | 4.89 | 6.04 | 6.92 | 7.84
303.15 K | 0.17 | 0.539 | 1.22 | 2.35 | 3.91 | 5.55 | 6.97 | 8.29 | 9.23
313.15 K | 0.177 | 0.556 | 1.32 | 2.56 | 4.25 | 6.26 | 7.78 | 9.55 | 10.7
323.15 K | 0.194 | 0.6 | 1.46 | 2.83 | 4.71 | 7.06 | 8.51 | 10.9 | 12.3

Nc1cccc2c1CN(C1CCC(=O)NC1=O)C2=O (stereo unspecified) + CO + CCOC(C)=O
solubility (g/100 g solution)
Conditions | 273.15 K | 278.15 K | 283.15 K | 288.15 K | 293.15 K | 298.15 K | 303.15 K | 308.15 K | 313.15 K | 318.15 K
x2 = 0.4074 | 0.261 | 0.29 | 0.318 | 0.352 | 0.389 | 0.429 | 0.475 | 0.525 | 0.581 | 0.642
x2 = 0.647 | 0.353 | 0.398 | 0.443 | 0.489 | 0.536 | 0.592 | 0.648 | 0.714 | 0.786 | 0.863
x2 = 0.8048 | 0.354 | 0.393 | 0.437 | 0.491 | 0.546 | 0.608 | 0.679 | 0.76 | 0.852 | 0.952
x2 = 0.9166 | 0.352 | 0.385 | 0.426 | 0.481 | 0.536 | 0.599 | 0.67 | 0.755 | 0.854 | 0.959

COC(=O)Nc1nc2ccccc2[nH]1 + CO + O
solubility (g/100 g solution)
Conditions | 278.15 K | 283.15 K | 288.15 K | 293.15 K | 298.15 K | 303.15 K | 308.15 K | 313.15 K | 318.15 K
x2 = 0.05887 | 0.00186 | 0.00222 | 0.00268 | 0.00321 | 0.00385 | 0.00444 | 0.00519 | 0.00603 | 0.00702
x2 = 0.1235 | 0.00537 | 0.00636 | 0.00764 | 0.00907 | 0.0107 | 0.0124 | 0.0144 | 0.0166 | 0.0191
x2 = 0.1941 | 0.00989 | 0.0117 | 0.0141 | 0.0168 | 0.0198 | 0.0228 | 0.0265 | 0.0306 | 0.0353
x2 = 0.2725 | 0.0136 | 0.0162 | 0.0196 | 0.0233 | 0.0275 | 0.032 | 0.0372 | 0.0432 | 0.0499
x2 = 0.36 | 0.0154 | 0.0185 | 0.0226 | 0.0279 | 0.0321 | 0.0378 | 0.0443 | 0.0516 | 0.06
x2 = 0.4579 | 0.0159 | 0.0192 | 0.0239 | 0.0289 | 0.0343 | 0.0409 | 0.0482 | 0.0567 | 0.0663
x2 = 0.5666 | 0.016 | 0.0196 | 0.0245 | 0.03 | 0.0357 | 0.0432 | 0.0513 | 0.0609 | 0.0717
x2 = 0.6924 | 0.0163 | 0.0203 | 0.0258 | 0.0316 | 0.0381 | 0.0463 | 0.0557 | 0.0664 | 0.0791
x2 = 0.8362 | 0.0175 | 0.0219 | 0.0281 | 0.0347 | 0.0418 | 0.0516 | 0.0624 | 0.075 | 0.0897

Nc1cc(-c2ccncc2)c[nH]c1=O + CO + O
solubility (g/100 g solution)
Conditions | 278.15 K | 283.15 K | 288.15 K | 293.15 K | 298.15 K | 303.15 K | 308.15 K | 313.15 K | 318.15 K | 323.15 K
x2 = 0.05881 | 0.00167 | 0.00195 | 0.00231 | 0.00269 | 0.00313 | 0.00358 | 0.00409 | 0.00463 | 0.00525 | 0.00594
x2 = 0.1233 | 0.00324 | 0.00377 | 0.00445 | 0.00515 | 0.00595 | 0.00677 | 0.00768 | 0.00865 | 0.00977 | 0.011
x2 = 0.1942 | 0.00545 | 0.00626 | 0.00731 | 0.00841 | 0.00969 | 0.011 | 0.0124 | 0.0141 | 0.0159 | 0.0179
x2 = 0.2727 | 0.00818 | 0.00949 | 0.0111 | 0.0129 | 0.0147 | 0.0167 | 0.0189 | 0.0211 | 0.0237 | 0.0266
x2 = 0.3599 | 0.0113 | 0.013 | 0.0152 | 0.0174 | 0.0201 | 0.0228 | 0.0258 | 0.029 | 0.0326 | 0.0367
x2 = 0.4576 | 0.0147 | 0.0171 | 0.0201 | 0.0232 | 0.0266 | 0.0302 | 0.034 | 0.0381 | 0.0428 | 0.048
x2 = 0.5675 | 0.0183 | 0.0214 | 0.0246 | 0.029 | 0.0331 | 0.0375 | 0.0424 | 0.0475 | 0.0536 | 0.0605
x2 = 0.6923 | 0.0222 | 0.026 | 0.0305 | 0.0355 | 0.0408 | 0.0463 | 0.0524 | 0.0586 | 0.0662 | 0.0743
x2 = 0.835 | 0.0262 | 0.0305 | 0.0355 | 0.0412 | 0.0475 | 0.0545 | 0.0616 | 0.0694 | 0.0789 | 0.0893

O=C1C=CC(=O)N1c1ccccc1Br + CO + O
solubility (g/100 g solution)
Conditions | 278.15 K | 283.15 K | 288.15 K | 293.15 K | 298.15 K | 303.15 K | 308.15 K | 313.15 K | 318.15 K | 323.15 K
x2 = 0.05881 | 0.58 | 0.746 | 0.94 | 1.19 | 1.47 | 1.83 | 2.25 | 2.74 | 3.31 | 4.02
x2 = 0.1233 | 1.14 | 1.45 | 1.86 | 2.38 | 2.94 | 3.7 | 4.49 | 5.5 | 6.69 | 7.95
x2 = 0.1942 | 2.04 | 2.61 | 3.29 | 4.1 | 5.06 | 6.13 | 7.47 | 9.02 | 10.8 | 12.7
x2 = 0.2727 | 3.47 | 4.29 | 5.27 | 6.48 | 7.79 | 9.34 | 11.1 | 13 | 15.3 | 17.7
x2 = 0.3599 | 4.79 | 5.85 | 7.12 | 8.56 | 10.2 | 12 | 14.3 | 16.5 | 19 | 21.8
x2 = 0.4576 | 6.01 | 7.29 | 8.71 | 10.5 | 12.4 | 14.5 | 16.9 | 19.4 | 22.2 | 25.4
x2 = 0.5675 | 7 | 8.5 | 10.2 | 12.2 | 14.3 | 16.8 | 19.5 | 22.2 | 25.4 | 28.6
x2 = 0.6923 | 7.84 | 9.53 | 11.5 | 13.5 | 16.1 | 18.7 | 21.7 | 24.7 | 28.1 | 31.6
x2 = 0.835 | 8.75 | 10.5 | 12.7 | 14.9 | 17.7 | 20.6 | 23.8 | 27.1 | 30.8 | 34.6
